Reference: PubChem BioAssay AID330 (DTP/NCI, 2004)
“And” between values parts separate entries of the source, which are not always exact repeats. Equal entries are not always repeated. Toxic doses and inconclusive results are not listed. Rule for the calls: active = survival T/C of 150% or more; inactive = T/C below 125% in these data.

Test system: P388 leukemia ip, CD2F1 mice, survival T/C
Experiment: NCI In Vivo Anticancer Drug Screen. Data for tumor model P388 Leukemia (intraperitoneal) in CD2F1 (CDF1) mice
Conditions: endpoint: median survival time, higher = longer survival
In short: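 Mice carrying the transplanted tumor received test compound or vehicle. Survival was recorded in each group, and the value is the treated-group measurement divided by that of the vehicle-treated control group.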

[1] = dose: 25.0 mg/kg/injection, schedule: Q01DX009 (ip), vehicle: saline with Tween-80
[2] = dose: 50.0 mg/kg/injection, schedule: Q01DX009 (ip), vehicle: saline with Tween-80
[3] = dose: 50.0 mg/kg/injection, schedule: Q04DX003 (ip), vehicle: saline with Tween-80
[4] = dose: 100.0 mg/kg/injection, schedule: Q01DX009 (ip), vehicle: saline with Tween-80
[5] = dose: 100.0 mg/kg/injection, schedule: Q04DX003 (ip), vehicle: saline with Tween-80
[6] = dose: 50.0 mg/kg/injection, schedule: Q01DX005 (ip), vehicle: Klucel (hydroxypropylcellulose) (HPC)
[7] = dose: 100.0 mg/kg/injection, schedule: Q01DX005 (ip), vehicle: Klucel (hydroxypropylcellulose) (HPC)
[8] = dose: 200.0 mg/kg/injection, schedule: Q01DX005 (ip), vehicle: Klucel (hydroxypropylcellulose) (HPC)
[9] = dose: 50.0 mg/kg/injection, schedule: Q01DX005 (ip), vehicle: saline with Tween-80
[10] = dose: 100.0 mg/kg/injection, schedule: Q01DX005 (ip), vehicle: saline with Tween-80
[11] = dose: 200.0 mg/kg/injection, schedule: Q01DX005 (ip), vehicle: saline with Tween-80
[12] = dose: 50.0 mg/kg/injection, schedule: Q01DX005 (ip), vehicle: saline
[13] = dose: 100.0 mg/kg/injection, schedule: Q01DX005 (ip), vehicle: saline
[14] = dose: 200.0 mg/kg/injection, schedule: Q01DX005 (ip), vehicle: saline
[15] = dose: 200.0 mg/kg/injection, schedule: Q01DX009 (ip), vehicle: saline with Tween-80
[16] = dose: 6.25 mg/kg/injection, schedule: Q01DX009 (ip), vehicle: saline
[17] = dose: 12.5 mg/kg/injection, schedule: Q01DX009 (ip), vehicle: saline
[18] = dose: 25.0 mg/kg/injection, schedule: Q01DX009 (ip), vehicle: saline
[19] = dose: 50.0 mg/kg/injection, schedule: Q01DX009 (ip), vehicle: saline
[20] = dose: 100.0 mg/kg/injection, schedule: Q01DX009 (ip), vehicle: saline
[21] = dose: 200.0 mg/kg/injection, schedule: Q01DX009 (ip), vehicle: saline

Measured: T/C

c1ccc(C2=NCCCO2)cc1
inactive: [1] 104 % of control | dose: 25.0 mg/kg/injection, schedule: Q04DX003 (ip), vehicle: saline with Tween-80 100 % of control | [2] 95 % of control | [3] 100 % of control | [4] 108 % of control | [5] 100 % of control

Nc1cc2[nH]c(=O)oc2cc1Cl
inactive: [6] 94 % of control | [7] 100 % of control | [8] 94 % of control

CCCCCCCCCCCCCCCCS(=O)(=O)N/N=C(\c1ccc(O)c(OC)c1)N1CCOCC1
inactive: dose: 50.0 mg/kg/injection, schedule: Q01DX009 (ip), vehicle: Klucel (hydroxypropylcellulose) (HPC) 110 % of control | dose: 100.0 mg/kg/injection, schedule: Q01DX009 (ip), vehicle: Klucel (hydroxypropylcellulose) (HPC) 101 % of control | dose: 200.0 mg/kg/injection, schedule: Q01DX009 (ip), vehicle: Klucel (hydroxypropylcellulose) (HPC) 96 % of control

O=C(Nc1nc2ccc(Cl)cc2[nH]1)c1ccccc1O
inactive: [9] 94 % of control | [10] 98 % of control | [11] 101 % of control

OCC(CO)c1ccccc1
inactive: dose: 37.5 mg/kg/injection, schedule: Q04DX003 (ip), vehicle: saline 97 % of control | dose: 75.0 mg/kg/injection, schedule: Q04DX003 (ip), vehicle: saline 100 % of control | dose: 150.0 mg/kg/injection, schedule: Q04DX003 (ip), vehicle: saline 100 % of control

Cc1nc(NN)nc(N)c1S(=O)(=O)Cc1ccc(Cl)cc1
inactive: dose: 100.0 mg/kg/injection, schedule: Q04DX002 (ip), vehicle: saline 94 % of control | dose: 200.0 mg/kg/injection, schedule: Q04DX002 (ip), vehicle: saline 90 % of control | dose: 400.0 mg/kg/injection, schedule: Q04DX002 (ip), vehicle: saline 90 % of control

[Cl][Pd][Cl].[NH-]C(CC(N)=O)C(=O)O (stereo unspecified)
inactive: dose: 12.5 mg/kg/injection, schedule: Q01DX005 (ip), vehicle: Klucel (hydroxypropylcellulose) (HPC) 101 % of control | dose: 25.0 mg/kg/injection, schedule: Q01DX005 (ip), vehicle: Klucel (hydroxypropylcellulose) (HPC) 95 % of control | [6] 100 % of control and 113 % of control

C=C(C)C(=NC(C)C)Nc1ccccc1Cl
inactive: [6] 92 % of control and 108 % of control | [7] 92 % of control and 107 % of control | [8] 98 % of control

CCOC(=O)/C=C(\C)NC1CC(OC2CC(O)(C(=O)CO)Cc3c(O)c4c(c(O)c32)C(=O)c2c(OC)cccc2C4=O)OC(C)C1O (stereo unspecified)
active: [3] 172 % of control
inactive: dose: 6.25 mg/kg/injection, schedule: Q04DX003 (ip), vehicle: saline with Tween-80 119 % of control | dose: 12.5 mg/kg/injection, schedule: Q04DX003 (ip), vehicle: saline with Tween-80 113 % of control

C=C(C(=O)OC1C/C(C)=C/C(O)C/C(C)=C/C2OC(=O)C(=C)C21)C(C)O (stereo unspecified)
inactive: dose: 25.0 mg/kg/injection, schedule: Q04DX002 (ip), vehicle: Klucel (hydroxypropylcellulose) (HPC) 109 % of control | dose: 25.0 mg/kg/injection, schedule: Q04DX002 (ip), vehicle: saline with Tween-80 110 % of control | dose: 50.0 mg/kg/injection, schedule: Q04DX002 (ip), vehicle: Klucel (hydroxypropylcellulose) (HPC) 117 % of control | dose: 50.0 mg/kg/injection, schedule: Q04DX002 (ip), vehicle: saline with Tween-80 102 % of control | dose: 100.0 mg/kg/injection, schedule: Q04DX002 (ip), vehicle: Klucel (hydroxypropylcellulose) (HPC) 117 % of control | dose: 200.0 mg/kg/injection, schedule: Q04DX002 (ip), vehicle: saline with Tween-80 124 % of control

CC(C)CNC(=O)c1ccccc1C(=O)NC1(C(=O)NCC(C)C)CCCC1
inactive: [9] 87 % of control | [10] 86 % of control | [11] 94 % of control

Cn1c(=O)n2n(c1=O)C1CCC2CC1
inactive: [12] 98 % of control | [13] 102 % of control | [14] 100 % of control

CCC(C)(CC)OC(N)=O
inactive: [1] 100 % of control | [2] 91 % of control | [4] 109 % of control | [15] 105 % of control

CCOC(=O)CC1(O)CCC2C3CC=C4CC(OC5CCCCO5)CCC4(C)C3CCC21C (stereo unspecified)
inactive: dose: 3.0 mg/kg/injection, schedule: Q01DX009 (ip), vehicle: saline with Tween-80 101 % of control | dose: 6.0 mg/kg/injection, schedule: Q01DX009 (ip), vehicle: saline with Tween-80 99 % of control | dose: 12.0 mg/kg/injection, schedule: Q01DX009 (ip), vehicle: saline with Tween-80 100 % of control | dose: 12.5 mg/kg/injection, schedule: Q01DX009 (ip), vehicle: saline with Tween-80 88 % of control

OC1CNCc2cc3c(cc21)OCO3 (stereo unspecified)
inactive: dose: 60.0 mg/kg/injection, schedule: Q01DX005 (ip), vehicle: saline 110 % of control | dose: 120.0 mg/kg/injection, schedule: Q01DX005 (ip), vehicle: saline 107 % of control | dose: 240.0 mg/kg/injection, schedule: Q01DX005 (ip), vehicle: saline 100 % of control

Cc1cc(N(C)C)c2ccc3c(ccc4c(N(C)C)cc(C)nc43)c2n1
inactive: [1] 94 % of control | [4] 103 % of control | [15] 99 % of control

CC(C)(C)c1cc(C(=S)SCc2ccccc2)cc(C(C)(C)C)c1O
inactive: [2] 93 % of control | [4] 105 % of control | [15] 105 % of control

O/N=C/C=N/O.O/N=C/C=N/O.[Ni]
inactive: dose: 0.78 mg/kg/injection, schedule: Q01DX009 (ip), vehicle: saline 100 % of control | dose: 1.56 mg/kg/injection, schedule: Q01DX009 (ip), vehicle: saline 98 % of control | dose: 3.13 mg/kg/injection, schedule: Q01DX009 (ip), vehicle: saline 91 % of control | [16] 97 % of control | [17] 100 % of control

[O-]/[N+](=C\c1ccccc1)CCO
inactive: [2] 97 % of control | [4] 101 % of control | [15] 106 % of control

COC(=O)c1ccc(N=NN(C)C)cc1
inactive: [18] 100 % of control and 97 % of control | dose: 25.0 mg/kg/injection, schedule: Q01DX009 (ip), vehicle: suspension in saline 103 % of control | [19] 113 % of control and 92 % of control | dose: 50.0 mg/kg/injection, schedule: Q01DX009 (ip), vehicle: suspension in saline 91 % of control | [20] 103 % of control and 94 % of control | [21] 108 % of control | dose: 200.0 mg/kg/injection, schedule: Q01DX009 (ip), vehicle: suspension in saline 101 % of control

CC1=C/C(=C(\c2cc(C)c(O)c(C(=O)O)c2)c2c(Cl)ccc(S(=O)(=O)O)c2Cl)C=C(C(=O)O)C1=O
inactive: [18] 102 % of control | [19] 102 % of control and 91 % of control | [20] 108 % of control and 95 % of control | [21] 98 % of control and 106 % of control

CCOC(=O)N1CCc2[nH]oc(=O)c2CC1
inactive: [16] 101 % of control and 107 % of control | [17] 110 % of control and 95 % of control | [18] 99 % of control

CC(NCCNC(C)c1cccnc1)c1cccnc1 (stereo unspecified)
inactive: [12] 102 % of control | [13] 110 % of control | [14] 94 % of control

Cc1cc(SCC(=O)c2ccc(Br)cc2)cc(C)[o+]1
inactive: [2] 100 % of control | [4] 86 % of control | [5] 104 % of control | dose: 200.0 mg/kg/injection, schedule: Q04DX003 (ip), vehicle: saline with Tween-80 114 % of control

C=C1CC/C=C(\C)C(=O)C[C@@H]2[C@@H]1CC2(C)C
inactive: dose: 0.37 mg/kg/injection, schedule: Q01DX009 (ip), vehicle: saline + alcohol 106 % of control | dose: 0.75 mg/kg/injection, schedule: Q01DX009 (ip), vehicle: saline + alcohol 108 % of control | dose: 1.5 mg/kg/injection, schedule: Q01DX009 (ip), vehicle: saline + alcohol 106 % of control | dose: 3.0 mg/kg/injection, schedule: Q01DX009 (ip), vehicle: saline + alcohol 94 % of control | dose: 6.0 mg/kg/injection, schedule: Q01DX009 (ip), vehicle: saline + alcohol 98 % of control

CCCC1OP(=O)(N2CC(C)N(P3(=O)OCC(CC)C(CCC)O3)CC2C)OCC1CC (stereo unspecified)
inactive: [6] 90 % of control | [7] 101 % of control

CCC[CH2][Sn]([CH2]CCC)([S]/C(C#N)=N/N=C/c1ccc(N(C)C)cc1)[S]/C(C#N)=N/N=C/c1ccc(N(C)C)cc1
inactive: dose: 7.5 mg/kg/injection, schedule: Q01DX005 (ip), vehicle: saline with Tween-80 117 % of control
